Experiments:
[1] = system: attachment of cells to a fibronectin-coated substrate; test: Inhibition of cell attachment to fibronectin-coated substrate by solubilized peptide; format: cell-based; conditions: peptide in solubilized form combined with free cells
Experimental: Those peptides having a COOH-terminal cystine residue were assayed for their activity in promoting cell attachment by first attaching them via the heterobifunctional crosslinker SPDP (N-succinimidyl 3-(2-pyridyldithio) propionate, Sigma, St. Louis, Mo.) to rabbit IgG which was immobilized on plastic. The attachment assay was then carried out as described by Ruoslahti, E. et al., Methods Enzymology 82:803-831 (1981) using freshly trypsinized normal rat kidney cells (NRK). After a one hour incubation, those cells which had attached were fixed, stained and quantitated using either an Artek cell counter or a multiscan spectrophotometer. […] The relative activity of each peptide is indicated by the concentration of the peptides in nmoles/ml necessary to achieve half-maximal activity, or, where accurate quantitation was not possible, by the crosses at the right of FIG. 1, and by the graph in FIG. 2.
If the mechanism of cell attachment involves the recognition of the amino acid sequence of the tetrapeptide by a receptor on the cell, then it could be postulated that attachment could be inhibited by preventing this recognition by “blocking” the receptor. […] In separate experiments, various concentrations of the tetrapeptide (Arg-Gly-Asp-Ser) and a hexapeptide, Pro-Arg-Gly-Asp-Ser-Gly in a solubilized form were combined with the free cells, and attachment activity measured as above.

[2] = system: normal rat kidney cells (NRK); test: Cell attachment promoting activity assay (peptide coupled via SPDP to rabbit IgG immobilized on plastic); format: cell-based; conditions: freshly trypsinized NRK cells, one hour incubation
Experimental: Those peptides having a COOH-terminal cystine residue were assayed for their activity in promoting cell attachment by first attaching them via the heterobifunctional crosslinker SPDP (N-succinimidyl 3-(2-pyridyldithio) propionate, Sigma, St. Louis, Mo.) to rabbit IgG which was immobilized on plastic. The attachment assay was then carried out as described by Ruoslahti, E. et al., Methods Enzymology 82:803-831 (1981) using freshly trypsinized normal rat kidney cells (NRK). After a one hour incubation, those cells which had attached were fixed, stained and quantitated using either an Artek cell counter or a multiscan spectrophotometer. In all cases, maximum attachment was about 80-90% of the cells plated. The relative activity of each peptide is indicated by the concentration of the peptides in nmoles/ml necessary to achieve half-maximal activity, or, where accurate quantitation was not possible, by the crosses at the right of FIG. 1, and by the graph in FIG. 2.

Substance | inhibition of normal attachment of cells to a fibronectin-coated substrate [1] | cell attachment promoting activity [2]
PRGDSG [Pro-Arg-Gly-Asp-Ser-Gly] | inhibit the normal attachment of cells | –
RVDSPAC [peptide with substitution of the glycine with the bulky valine residue] | – | abolished the activity
H-Arg-Gly-Asp-Ser-OH (RGDS; printed: Arg-Gly-Asp-Ser) | inhibit the normal attachment of cells | had the property of causing cell attachment
